Reference: ChEMBL document CHEMBL5537110, “SIRT1-dependent mitochondrial biogenesis supports therapeutic effects of 4-butyl-polyhydroxybenzophenone compounds against NAFLD” (Eur J Med Chem, 2023)
The source made the active and inactive calls. The rule behind the calls is not given here.

Columns and labels:
HepG2 [1] = test: Inhibition of liver injury in 40% FBS-induced steatosis human HepG2 cells model assessed as decrease in AST level at 0.2 to 5 uM incubated in steatosis inducing DMEM with 40% FBS medium for 24 hrs followed by compound treatment; format: functional, cell-based; conditions: dose 0.2-5 µM
HepG2 [2] = test: Recovery of mitochondrial biogenesis in 40% FBS-induced steatosis human HepG2 cells model assessed as increase in mitochondrial ND6 protein expression incubated for 24 hrs by western blot analysis; format: functional, cell-based; conditions: dose 0.2-5 µM
HepG2 [3] = test: Induction of mitochondrial biogenesis in human HepG2 cells assessed as mitochondrial COX1 protein expression incubated for 24 hrs in presence of SIRT1 inhibitor, EX527 by western blot analysis; format: functional, cell-based
HepG2 [4] = test: Inhibition of liver injury in 40% FBS-induced steatosis human HepG2 cells model assessed as decrease in GDH level at 0.2 to 5 uM incubated with compound for 24 hrs followed by replacement with steatosis inducing DMEM with 40% FBS medium; format: functional, cell-based; conditions: dose 0.2-5 µM
HepG2 [5] = test: Recovery of mitochondrial activity in 40% FBS-induced steatosis human HepG2 cells model assessed as increase in number of mitochondria incubated with compound for 24 hrs followed by replacement with steatosis inducing DMEM with 40% FBS medium by MitoTracker Green based fluorescence analysis; format: functional, cell-based; conditions: dose 0.2-5 µM
HepG2 [6] = test: Recovery of mitochondrial biogenesis in 40% FBS-induced steatosis human HepG2 cells model assessed as increase in TFAM mRNA expression incubated for 24 hrs by qRT-PCR analysis; format: functional, cell-based; conditions: dose 0.2-5 µM
HepG2 [7] = test: Inhibition of liver injury in 40% FBS-induced steatosis human HepG2 cells model assessed as decrease in LDH level at 0.2 to 5 uM incubated in steatosis inducing DMEM with 40% FBS medium for 24 hrs followed by compound treatment; format: functional, cell-based; conditions: dose 0.2-5 µM
[8] = biological target: T1, Peroxisome proliferator-activated receptor gamma coactivator 1-alpha (Homo sapiens) (UniProt Q9UBK2); test: Binding affinity to PGC1alpha in human HepG2 cells assessed as increase in thermal stabilization of protein at 320 uM pretreated with compound for 30 mins followed by incubation at 40 to 65 degC for 3 mins by CETSA-WB analysis; format: cell-based; conditions: filed as activator, time 33.0 min
T1 sequence (whole entry): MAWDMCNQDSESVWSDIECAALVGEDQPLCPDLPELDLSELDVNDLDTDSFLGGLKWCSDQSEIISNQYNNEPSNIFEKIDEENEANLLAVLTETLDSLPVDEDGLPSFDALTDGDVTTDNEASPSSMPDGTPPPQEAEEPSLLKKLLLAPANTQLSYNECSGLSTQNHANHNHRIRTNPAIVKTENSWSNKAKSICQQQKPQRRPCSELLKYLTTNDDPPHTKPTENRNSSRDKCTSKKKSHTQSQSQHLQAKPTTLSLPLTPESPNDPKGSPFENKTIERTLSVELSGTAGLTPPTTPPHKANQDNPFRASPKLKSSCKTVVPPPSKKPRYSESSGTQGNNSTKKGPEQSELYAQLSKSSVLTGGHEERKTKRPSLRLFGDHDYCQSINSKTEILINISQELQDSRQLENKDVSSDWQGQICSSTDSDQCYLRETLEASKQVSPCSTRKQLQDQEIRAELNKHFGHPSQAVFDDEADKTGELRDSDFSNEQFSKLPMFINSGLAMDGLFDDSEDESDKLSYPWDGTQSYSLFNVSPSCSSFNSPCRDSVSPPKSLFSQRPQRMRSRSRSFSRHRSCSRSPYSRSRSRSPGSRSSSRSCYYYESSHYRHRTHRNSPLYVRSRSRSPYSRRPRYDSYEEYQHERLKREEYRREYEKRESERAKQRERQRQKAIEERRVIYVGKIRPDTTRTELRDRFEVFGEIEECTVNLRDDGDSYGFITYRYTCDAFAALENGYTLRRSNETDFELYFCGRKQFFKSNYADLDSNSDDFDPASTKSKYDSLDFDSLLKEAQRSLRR

HepG2 [9] = test: Inhibition of liver injury in 40% FBS-induced steatosis human HepG2 cells model assessed as increase in liver protection index by measuring increase in GSH level at 0.2 to 5 uM incubated with compound for 24 hrs followed by replacement with steatosis inducing DMEM with 40% FBS medium; format: functional, cell-based; conditions: dose 0.2-5 µM
HepG2 [10] = test: Inhibition of liver injury in 40% FBS-induced steatosis human HepG2 cells model assessed as decrease in ALT level at 0.2 to 5 uM incubated with compound for 24 hrs followed by replacement with steatosis inducing DMEM with 40% FBS medium; format: functional, cell-based; conditions: dose 0.2-5 µM
[11] = biological target: T2, NAD-dependent protein deacetylase sirtuin-1 (Homo sapiens) (UniProt Q96EB6); test: Binding affinity to SIRT1 in human HepG2 cells assessed as increase in thermal stabilization of protein at 320 uM pretreated with compound for 30 mins followed by incubation at 40 to 65 degC for 3 mins by CETSA-WB analysis; format: cell-based; conditions: filed as activator, time 33.0 min
T2 sequence (whole entry): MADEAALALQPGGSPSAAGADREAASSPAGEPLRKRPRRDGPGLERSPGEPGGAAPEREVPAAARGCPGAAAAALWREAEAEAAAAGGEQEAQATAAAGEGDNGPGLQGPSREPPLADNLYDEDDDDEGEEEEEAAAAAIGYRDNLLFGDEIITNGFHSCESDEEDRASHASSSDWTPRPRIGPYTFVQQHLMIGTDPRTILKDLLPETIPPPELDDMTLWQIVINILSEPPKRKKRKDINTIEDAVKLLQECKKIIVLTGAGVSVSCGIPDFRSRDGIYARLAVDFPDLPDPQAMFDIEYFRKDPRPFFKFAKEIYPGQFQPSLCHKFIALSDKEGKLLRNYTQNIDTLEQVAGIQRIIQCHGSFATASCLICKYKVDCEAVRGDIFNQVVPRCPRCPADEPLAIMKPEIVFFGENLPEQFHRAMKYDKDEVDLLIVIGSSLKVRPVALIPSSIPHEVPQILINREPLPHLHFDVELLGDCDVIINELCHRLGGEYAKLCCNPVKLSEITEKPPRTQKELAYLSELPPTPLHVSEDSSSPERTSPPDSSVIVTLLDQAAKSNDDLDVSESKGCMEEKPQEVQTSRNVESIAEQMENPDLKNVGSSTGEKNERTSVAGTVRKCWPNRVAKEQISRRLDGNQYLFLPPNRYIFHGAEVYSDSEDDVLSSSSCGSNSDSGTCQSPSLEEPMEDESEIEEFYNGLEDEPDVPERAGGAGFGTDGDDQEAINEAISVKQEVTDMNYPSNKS

HepG2 [12] = test: Recovery of mitochondrial biogenesis in 40% FBS-induced steatosis human HepG2 cells model assessed as increase in NRF1 protein expression incubated for 24 hrs by western blot analysis; format: functional, cell-based; conditions: dose 0.2-5 µM
Rattus norvegicus [13] = test: Hepatoprotective activity against high fat diet-fed NAFLD Sprague-Dawley rat model assessed as decrease in serum gamma-GT level administered intragastrically via gavage for 4 weeks; format: functional, organism-based; conditions: dose 12.3-61.4 mg/kg, route ig
Rattus norvegicus [14] = test: Hepatoprotective activity against high fat diet-fed NAFLD Sprague-Dawley rat model assessed as decrease in serum AST level at 12.3 to 61.4 mg/kg, IG administered via gavage for 4 weeks; format: functional, organism-based; conditions: dose 12.3-61.4 mg/kg

Activity [8]: Active
Activity [11]: Active
Structure (SMILES): CC(C)(C)c1ccc(C(=O)c2ccc(O)c(O)c2)cc1
inhibition (HepG2 [1]): Active
Activity (HepG2 [2]): Dose-Dependent Effect
Activity (HepG2 [3]): inactive
inhibition (HepG2 [4]): Active
Activity (HepG2 [5]): Dose-Dependent Effect
Activity (HepG2 [6]): Dose-Dependent Effect
inhibition (HepG2 [7]): Active
inhibition (HepG2 [9]): Active
inhibition (HepG2 [10]): Active
Activity (HepG2 [12]): Dose-Dependent Effect
Activity (Rattus norvegicus [13]): Active
Activity (Rattus norvegicus [14]): Active
